Measurements: PMC9785280, “Synthesis, Antiproliferative Evaluation and QSAR Analysis of Novel Halogen- and Amidino-Substituted Benzothiazoles and Benzimidazoles” (International Journal of Molecular Sciences, 2022)
“And” between values parts separate entries of the source, which are not always exact repeats. Identical values can stand only once.

Columns and labels:
HuT78 cells = test: Cell cycle analysis (PI, flow cytometry); assay type: cell-based, human; conditions: HuT78, 5 µM, 24 h, versus untreated cells
Method: The HuT78 cells were plated in 6-well plates at a concentration of 5 × 10^5 cells per well and treated 24 h and 48 h with selected compounds 36c, 42a, 42c, 45a, 45b, 45c and 46c at a concentration of 5 μM. After drug treatment, the cells were fixed with ice-cold 70% ethanol in phosphate-buffered saline (PBS) and incubated with 0.3 μg/mL propidium iodide for 30 min at room temperature. Before being analyzed by flow cytometry (BD FACSCalibur, Becton Dickinson, San Jose, CA, SAD), samples were treated with 0.4 μg/mL RNase A for 5 min at room temperature. The resultant DNA histograms were generated and analyzed using FlowJo 7.6 software (Treestar, Inc, Ashland, OR, USA). Experiments were done in duplicate and the quantitative data are reported as average value ± standard deviation. Comparisons between control (non-treated) and treated groups were done using one-way analysis of variance (ANOVA) with Tukey–Kramer’s post hoc test with MedCalc statistical program. P-value less than 0.05 was considered statistically significant.

[1] = system: HL60 (promyelocytic leukemia) cells; test: MTT antiproliferative assay, HL60; assay type: cell-based, human; conditions: for IC50: Homo sapiens, HL-60, 72 h, MTT, mean ± SD of three independent experiments; for SI (BJ) HL60: SI = IC50 BJ / IC50 HL60; for SI (MDCK) HL60: SI = IC50 MDCK1 / IC50 HL60
Method: (§1) The growth inhibition activity was assessed according to the slightly modified procedure performed at the National Cancer Institute, Developmental Therapeutics Program.
(§2) Examined compounds were dissolved in DMSO (1 × 10^−2 M). The experiments were carried out on seven human tumor cell lines and two normal cell lines. The following cell lines were used: HeLa (human cervical adenocarcinoma; purchased from ATCC), CaCo-2 (human colorectal adenocarcinoma), HuT78 (T-cell lymphoma), THP-1 (acute monocytic leukemia), SW620 (colorectal adenocarcinoma, metastatic), MDA-MB-231 (human breast adenocarcinoma), HL60 (promyelocytic leukemia cell line), foreskin fibroblast cells (BJ) and MDCK1 (Madine–Darby canine kidney fibroblast like cells). MDCK1 cells were used between 24 and 26 passages.
(§3) Adherent cells were cultured in the Dulbecco’s modified Eagle medium—DMEM (Gibco, EU) supplemented with 10 % heat-inactivated fetal bovine serum (FBS, Gibco, EU), 2 mM glutamine, and 100 U/0.1 mg penicillin/streptomycin. Cells on suspension were cultured in RPMI 1640 (Gibco, EU) medium supplemented with 10 % FBS (Gibco, EU), 2 mM glutamine, 1 mM sodium pyruvate, 10 mM HEPES. Cells were grown in humidified atmosphere under the conditions of 37 °C/5% of CO2 gas in the CO2 incubator (IGO 150 CELLlife^TM, JOUAN, Thermo Fisher Scientific, Waltham, MA, USA). A erythrosin B (Sigma-Aldrich, St. Louis, MO, USA) dye exclusion method was used to assess cell viability before plating.
(§4) Adherent cells (HeLa, CaCo-2, MCF-7 and MDCK-1) were plated in 96-well flat bottom plates (Greiner, Frickenhausen, Austria) at a concentration of 2 × 10^4 cells/mL. Suspension cells (THP-1 and HuT78) were plated in 96-well microtiter plates (Sarstead, Newton, USA) at a concentration of 1 × 10^5 cells/mL. Twenty-four hours later, cells were treated with test agents in […] 10-fold dilutions ([…] to 10^−4 M) and incubated for further 72 h. Working dilutions were freshly prepared on the day of testing. The solvent was also tested for eventual inhibitory activity by adjusting its concentration to be the same as in working concentrations. After 72 h of incubation, the cell growth rate was evaluated by performing the MTT assay, which detects dehydrogenase activity in viable cells. For this purpose, upon completion of the incubation period, growth medium was discarded and 50 μL of MTT was added to each well at a concentration of 5 mg/mL. After four hours of incubation at 37 °C, water insoluble MTT-formazan crystals were dissolved in 150 μL of dimethyl-sulfoxide (DMSO) for adherent cells, and in 10 % SDS with 0.01 M/L HCl for cells grown in suspension. The absorbance (OD, optical density) was measured on a microplate reader (iMark, BIO RAD, Hercules, CA, USA) at 595 nm.
(§5) Percent of life cells was calculated as follows: % = OD (sample)–OD (background)/OD (control)–OD (background) × 100.
(§6) Optical density (OD) of background for adherent cells is the OD of MTT solution and DMSO; OD (background) for suspension cells is OD of the culture medium with MTT and 10% SDS with 0.01 M/L HCl; OD (control) is the OD of the cells growth without tested compounds.
(§7) Calculation of GI50 value curves and QC analysis is performed by using the Excel tools and GraphPadPrism software (La Jolla, CA), v. 5.03. Briefly, individual concentration effect curves are generated by plotting the logarithm of the concentration of tested compounds(X) vs. corresponding percent inhibition values (Y) using least squares fit. The best fit GI50 values are calculated using Log (inhibitor) versus normalized response—Variable slope equation, where Y Ľ 100/(1 ţ 10 ((LogIC50 _ X) * HillSlope)). QC criteria parameters (Z0, S:B, R2, HillSlope) were checked for every GI50 curve.

[2] = system: HuT78 (T-cell lymphoma) cells; test: MTT antiproliferative assay, HuT78; assay type: cell-based, human; conditions: for IC50: Homo sapiens, HuT78, 72 h, 72 h, MTT, mean ± SD of three independent experiments; for SI (MDCK) HuT78: SI = IC50 MDCK1 / IC50 HuT78
Summary of the method: (§8)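 GI50 values derive from least-squares fits of log concentration against percent inhibition. Each fit uses MTT absorbance (595 nm) recorded after 72 h treatment at 10^−7 to 10^−4 M, relative to untreated cells.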

[3] = system: THP1 (human monocytic leukemia) cells; test: MTT antiproliferative assay, THP1; assay type: cell-based; conditions: for IC50: Homo sapiens, THP-1, 72 h, MTT, mean ± SD of three independent experiments; for SI (BJ) THP1: SI = IC50 BJ / IC50 THP1; for SI (MDCK) THP1: SI = IC50 MDCK1 / IC50 THP1
Method: as §1, §2, §3, §4, §5, §6, §7

[4] = system: HeLa (cervical adenocarcinoma) cells; test: MTT antiproliferative assay, HeLa; assay type: cell-based; conditions: Homo sapiens, 72 h, mean ± SD of three independent experiments
Summary of the method: as §8

[5] = system: CaCo-2 (colon adenocarcinoma) cells; test: MTT antiproliferative assay, CaCo-2; assay type: cell-based, human; conditions: Homo sapiens, Caco-2; 72 h, MTT, mean ± SD of three independent experiments
Summary of the method: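 CaCo-2 cells, plated at 2 × 10^4 cells/mL in DMEM with 10 % FBS at 37 °C/5% CO2, were treated 24 h later with five 10-fold dilutions (10^−7 to 10^−4 M) for 72 h. Viability was measured by MTT (4 h, formazan dissolved in DMSO, OD 595 nm) against background and untreated controls. GI50 came from log-concentration versus percent-inhibition fits.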

[6] = system: MDA-MB-231 (human breast adenocarcinoma) cells; test: MTT antiproliferative assay, MDA-MB-231; assay type: cell-based; conditions: for IC50: Homo sapiens, MDA-MB-231, 72 h, MTT, mean ± SD of three independent experiments
Method: as §1, §2, §3, §4, §5, §6, §7

[7] = system: SW620 (colorectal adenocarcinoma, metastatic) cells; test: MTT antiproliferative assay, SW620; assay type: cell-based, human; conditions: for IC50: Homo sapiens, SW-620, 72 h, MTT, mean ± SD of three independent experiments, read-out: IC50 (µM) SW620
Method: as §1, §2, §3, §4, §5, §6, §7

human fibroblasts (BJ) = test: MTT antiproliferative assay, normal BJ fibroblasts; assay type: cell-based; conditions: for IC50: Homo sapiens, Fibroblast, 72 h, MTT, mean ± SD of three independent experiments, normal cells
Summary of the method: as §8

[8] = system: MDCK1 (Madin–Darby canine kidney) cells; test: MTT antiproliferative assay, non-tumor MDCK1 cells; assay type: cell-based; conditions: Canis lupus familiaris, MDCK1, 72 h, mean ± SD of three independent experiments, normal cells
Summary of the method: as §8

MCF-7^wt cells = system: MCF-7^wt cells; set-up: method as in PMID 23623491; conditions: estrogen receptor-positive MCF-7^wt cells ref 17,18; cited from earlier work

SMILES | G2/M phase cell fraction (HuT78 cells) | IC50 [1] [µM] | SI (BJ) HL60 [1] | SI (MDCK) HL60 [1] | IC50 [2] [µM] | SI (BJ) HuT78 ([2]; SI = IC50 BJ / IC50 HuT78) | SI (MDCK) HuT78 [2] | IC50 [3] [µM] | SI (BJ) THP1 [3] | SI (MDCK) THP1 [3] | IC50 [4] [µM] | IC50 [5] [µM] | IC50 [6] [µM] | SI (MDCK) MDA-MB-231 ([6]; SI = IC50 MDCK1 / IC50 MDA-MB-231) | IC50 [7] [µM] | SI (MDCK) SW620 ([7]; SI = IC50 MDCK1 / IC50 SW620) | IC50 (human fibroblasts (BJ)) [µM] | IC50 [8] [µM] | toxicity to normal BJ cells (in words) (human fibroblasts (BJ)) | IC50 (MCF-7^wt cells) [nM]
COc1cc(-c2nc3ccc(C4=NCCCN4)cc3[nH]2)ccc1OCC(=O)c1ccccc1 [42c] | decrease in G2/M phase | 19.5 ± 0.8 | 1.68 | 5.13 | 24.9 ± 4.6 | 1.32 | 4.0 | 19.7 ± 2.4 | 1.68 | 5.13 | > 100 | > 100 | 38.9 ± 4.2 | 2.57 | 29.8 ± 3 | 3.36 | 32.8 ± 4.1 | > 100 | – | –
c1ccc(Cn2cc(COc3ccc(-c4nc5ccc(C6=NCCCN6)cc5[nH]4)cc3)nn2)cc1 [45a] | decrease in G2/M phase | 48.1 ± 16.4 | 1.15 | 2.07 | 4.8 ± 3.6 | – | 20.83 | – | 69.5 and 70 | 125 | > 100 | > 100 | > 100 | – | > 100 | – | – | > 100 | – | –
Fc1cc(-c2nc3ccc(C4=NCCCN4)cc3[nH]2)ccc1OCc1cn(Cc2ccccc2)nn1 [45b] | decrease in G2/M phase | 30 ± 12.3 | 2.74 | 1.54 | 5.5 ± 4 | – | 8.36 | 2.5 ± 1.5 | 32.84 | 18.44 | > 100 | > 100 | > 100 | – | > 100 | – | 82.1 ± 0.4 | 46.1 ± 14.8 | – | –
COc1cc(-c2nc3ccc(C4=NCCCN4)cc3[nH]2)ccc1OCc1cn(Cc2ccccc2)nn1 [45c] | decrease in G2/M phase | 25.1 ± 16 | – | 2.73 | 4.1 ± 3.3 | – | 16.7 | > 100 | – | – | > 100 | > 100 | > 100 | – | > 100 | – | > 100 | 68.5 ± 22.7 | not toxic | –
Nc1ccc(-c2nc3ccccc3s2)cc1 [CJM-126] | – | – | – | – | – | – | – | – | – | – | – | – | – | – | – | – | – | – | – | < 1
